Experimental data: US5604209A, “Synergistic antiviral compositions” (Mitsubishi Chemical Corporation, priority 1993, dated 1997)

Legend:
[1] = background statement; cited from earlier work
[2] = biological target: T1, HIV-1 reverse transcriptase (Human immunodeficiency virus type 1 group M subtype B, UniProt P04585); experiment: Inhibition of HIV-1 reverse transcriptase (incorporation of tritiated thymidine phosphate into cDNA), alone and combined with AZT-TP; assay type: biochemical; settings: for Combination Index CI50 (50% inhibition of RT) / Combination Index CI70 (70% inhibition of RT) / Combination Index CI90 (90% inhibition of RT): in combination with AZT-TP, AZT-TP/compound ratio 1/20 (MKC-442), 1/250 (R82913), 1/250 (Nevirapine), 1/40 (L-696229), CI<1 synergistic, CI>1 counterbalance
T1 construct: HIV-1 reverse transcriptase (RT)
Experimental: The inhibitory activity was evaluated on the basis of the incorporation Of tritiated thymidine phosphate into acid-precipitating cDNA in the presence of HIV-1 reverse transcriptase (RT).
To a reaction solution (50 mM Tris-HC1, pH 8.4, 0.1% Triton X-100, 100 mM magnesium chloride, 2 mM dithiothreitol, 50 mM potassium chloride, 0.1 mg/ml bovine serum albumin (nuclease-free, Worthington, Freehold, N.J.), 0.5 μCi [methyl-^3 H]TTP and 12 μg/ml poly(rA). p(dT)12-18)was added 10% solution of a test drug in dimethyl sulfoxide and RT (0.05 units) to obtain a reaction mixture of total volume of 50 μl. The mixture was incubated at 37° C. for 30 min and the reaction stopped with 2M EDTA (10 μl). The resultant reaction mixture (50 μl) was spotted on Whatman DE-81 filter paper circle. The circle was washed with 5% disodium hydrogenphosphate (×3), water (×2) and 95% ethanol (×2) and the radiation was counted with scintillation counter.
Thus, an isoborogram was prepared to evaluate the effect of combined use of AZT-TP and various allosteric inhibitors according to the method of Chou et al., Adv. Enzyme Regul., 22, 27-55 (1984) (FIG. 1). The data plotted were obtained by dividing IC50, the concentration of an allosteric inhibitor required to achieve 50% inhibition of reverse transcriptase of HIV, in the presence of AZT-TP with IC50 of an allosteric inhibitor obtained in the absence of a given concentration of AZT-TP. In the FIG. 1, each symbol represents individual allosteric inhibitor as follows.
Combination indexes (CI) for 50%, 70% and 90% inhibition of RT (representedby CI50, CI70 and CI90) were calculated according to the method of Prichard et al., Antimicrob. Agents Chemother., 35, 1060-1065 (1991) on the basis of results obtained in experiments carried out at least twice at indicated concentration ratio. Results are shown in Table 1 below, wherein CI<1 means the synergistic effect; CI1, additive effect; and CI>1, counterbalance effect.

Structure (SMILES): Cc1cn([C@H]2C[C@H](N=[N+]=[N-])[C@@H](CO)O2)c(=O)[nH]c1=O [AZT, 3'-azide-3'-deoxythymidine]
- reported side effects [1]: severe anemia or leukopenia due to suppression of bone marrow

Structure (SMILES): Cc1cn([C@H]2C[C@H](N=[N+]=[N-])[C@@H](COP(=O)(O)OP(=O)(O)OP(=O)(O)O)O2)c(=O)[nH]c1=O [AZT-TP, 3'-azide-3'-deoxythymidine triphosphate]
- concentration of AZT-TP for 50% inhibition of RT as fraction of its IC50 alone ([2]; in the presence of MKC-442 at 1/2 concentration of its IC50): about 1/10

Structure (SMILES): CCc1cc(CCc2nc3ccccc3o2)c(=O)[nH]c1C [L-696229, 3-[2-(Benzoxazole-2-yl)ethyl]-5-ethyl-6-methylpyridine-2(1H)-one]
- Combination Index CI50 (50% inhibition of RT) [2]: 0.97
- Combination Index CI70 (70% inhibition of RT) [2]: 0.99
- Combination Index CI90 (90% inhibition of RT) [2]: 1.06

Structure (SMILES): CCOCn1c(Cc2ccccc2)c(C(C)C)c(=O)[nH]c1=O [MKC-442, 6-Benzyl-1-ethoxymethyl-5-isopropyluracil]
- Combination Index CI50 (50% inhibition of RT) [2]: 0.82
- Combination Index CI70 (70% inhibition of RT) [2]: 0.63
- Combination Index CI90 (90% inhibition of RT) [2]: 0.43
- IC50 ([2]; used alone, poly(rA).p(dT)12-18 template, 37° C., 30 min, read-out: IC50 (concentration required to obtain 50% inhibition of RT when used alone)): 33.5 nM

Structure (SMILES): Cc1ccnc2c1NC(=O)c1cccnc1N2C1CC1 [Nevirapine, 5,11-Dihydro-11-cyclopropyl-4-methyldipyrido[2,3,-b:2',3'-e][1,4]diazepine-6-one]
- Combination Index CI50 (50% inhibition of RT) [2]: 1.04
- Combination Index CI70 (70% inhibition of RT) [2]: 0.91
- Combination Index CI90 (90% inhibition of RT) [2]: 0.69

Structure (SMILES): CC(C)=CCN1Cc2cc(Cl)cc3[nH]c(=S)n(c23)C[C@@H]1C [R82913, (+)-(S)-9-Chloro-4,5,6,7-tetrahydro-5-methyl-6-(3-methyl-2-butenyl)imidazo[4,5,1-jk][1,4]benzodiazepine-2(1H)-thione]
- Combination Index CI50 (50% inhibition of RT) [2]: 1.15
- Combination Index CI70 (70% inhibition of RT) [2]: 1.33
- Combination Index CI90 (90% inhibition of RT) [2]: 1.70
